Test results taken from US20260041744A1, “Methods for Treating Pompe Disease” (Amicus Therapeutics, Inc., priority 2022, published 2026).
Where “and” joins values, the source holds several entries; their conditions need not be identical. Identical values can stand only once.

Key:
[1] = test system: adults with Pompe disease; assay: Study ATB200-02 (20 mg/kg cipaglucosidase alfa IV + 260 mg miglustat): 6MWT (6MWD, % predicted 6MWD); format: in vivo, human;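 note: Open-label Phase I/II trial, ambulatory cohorts only, values are changes from baseline or counts relative to the baseline walk test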
Procedure: The change from baseline (CFBL) in 6MWD, % predicted sitting FVC, manual muscle test (MMT) and biomarkers—urine glucose tetrasaccharide (Hex4) and serum creatine kinase (CK)—were assessed at regular intervals.
The 4 cohorts in the study are as follows: • Cohort 1: ERT-experienced (2 to 6 years) ambulatory subjects (11 subjects) • Cohort 2: ERT-experienced (≥2 years) non-ambulatory subjects (6 subjects) • Cohort 3: ERT-naïve ambulatory subjects (6 subjects)· • Cohort 4: ERT-experienced (≥7 years) ambulatory subjects (6 subjects)
In Study ATB200-02, motor function was evaluated in all ambulatory subjects (ie, Cohorts 1, 3, and 4) (Table 23, FIGS. 46A-46D).

[2] = test system: adults with Pompe disease; assay: Study ATB200-02: SGIC and PGIC; format: in vivo, human; details: 48 months follow-up
[3] = Ambulatory ERT-experienced, 12 months
[4] = Ambulatory ERT-experienced, 24 months
[5] = Ambulatory ERT-experienced, 36 months
[6] = Ambulatory ERT-experienced, 48 months
[7] = Ambulatory ERT-naïve, 12 months
[8] = Ambulatory ERT-naïve, 24 months
[9] = Ambulatory ERT-naïve, 36 months
[10] = Ambulatory ERT-naïve, 48 months
[11] = Cohort 1 + Cohort 3 + Cohort 4, Month 12
[12] = Cohort 1 + Cohort 3 + Cohort 4, Month 24
[13] = Cohort 1 + Cohort 3 + Cohort 4, Month 36
[14] = Cohort 1 + Cohort 3 + Cohort 4, Month 48
[15] = Cohort 1, ambulatory ERT-experienced, N = 7
[16] = Cohort 2, non-ambulatory ERT-experienced, N = 5
[17] = Cohort 3, ambulatory ERT-naïve, N = 6
[18] = Cohort 4, ambulatory ERT-experienced, N = 6

ATB200/miglustat: two-component therapy: cipaglucosidase alfa (ATB200) administered in conjunction with miglustat (AT2221), a stabilizer of cipaglucosidase alfa
motor function by 6MWT ([1]; 48 months, Cohorts 1, 3, 4): clinically meaningful improvements in motor function as measured by the 6MWT
6MWD, CFBL mean [1, 3]: 33.5 meters
Percent predicted 6MWD, CFBL mean [1, 3]: 6.1
6MWD, CFBL mean [1, 4]: 25.2 meters
Percent predicted 6MWD, CFBL mean [1, 4]: 5.4
6MWD, CFBL mean [1, 5]: 9.8 meters
Percent predicted 6MWD, CFBL mean [1, 5]: 3.4
6MWD, CFBL mean [1, 6]: 20.7 meters
Percent predicted 6MWD, CFBL mean [1, 6]: 5.9
6MWD, CFBL mean [1, 7]: 57.0 meters
Percent predicted 6MWD, CFBL mean [1, 7]: 10.7
6MWD, CFBL mean [1, 8]: 54.4 meters
Percent predicted 6MWD, CFBL mean [1, 8]: 11.0
6MWD, CFBL mean [1, 9]: 43.5 meters
Percent predicted 6MWD, CFBL mean [1, 9]: 9.0
6MWD, CFBL mean [1, 10]: 52.2 meters
Percent predicted 6MWD, CFBL mean [1, 10]: 11.7
6MWD change from baseline, mean [1, 11]: 39.9 meters
6MWD change from baseline, median [1, 11]: 27.4 meters
6MWD change from baseline, mean [1, 12]: 34.4 meters
6MWD change from baseline, median [1, 12]: 22.6 meters
6MWD change from baseline, mean [1, 13]: 19.7 meters
6MWD change from baseline, median [1, 13]: 24.2 meters
6MWD change from baseline, mean [1, 14]: 30.4 meters
6MWD change from baseline, median [1, 14]: 27.0 meters
6MWD change from baseline, mean ([1]; Cohort 1 + Cohort 4 (ERT-experienced), Month 12, listed as cipaglucosidase alfa/miglustat): 33 meters and 33.5 meters
6MWD change from baseline, mean ([1]; Cohort 1 + Cohort 4 (ERT-experienced), Month 24, listed as cipaglucosidase alfa/miglustat): 25 meters and 25.2 meters
6MWD change from baseline, mean ([1]; Cohort 1 + Cohort 4 (ERT-experienced), Month 36, listed as cipaglucosidase alfa/miglustat): 9.8 meters
6MWD change from baseline, mean ([1]; Cohort 1 + Cohort 4 (ERT-experienced), Month 48, listed as cipaglucosidase alfa/miglustat): 20 meters and 20.7 meters
6MWD change from baseline, median ([1]; Cohort 1 + Cohort 4, Month 12): 20.6 meters
6MWD change from baseline, median ([1]; Cohort 1 + Cohort 4, Month 24): 18.5 meters
6MWD change from baseline, median ([1]; Cohort 1 + Cohort 4, Month 36): 11.6 meters
6MWD change from baseline, median ([1]; Cohort 1 + Cohort 4, Month 48): 27.0 meters
6MWD change from baseline, mean ([1]; Cohort 3 (ERT-naïve), Month 12, listed as cipaglucosidase alfa/miglustat): 57 meters and 57.0 meters
6MWD change from baseline, mean ([1]; Cohort 3 (ERT-naïve), Month 24, listed as cipaglucosidase alfa/miglustat): 54 meters and 54.4 meters
6MWD change from baseline, mean ([1]; Cohort 3 (ERT-naïve), Month 36, listed as cipaglucosidase alfa/miglustat): 43 meters and 43.5 meters
6MWD change from baseline, mean ([1]; Cohort 3 (ERT-naïve), Month 48, listed as cipaglucosidase alfa/miglustat): 52 meters and 52.2 meters
6MWD change from baseline, median ([1]; Cohort 3, Month 12): 55.6 meters
6MWD change from baseline, median ([1]; Cohort 3, Month 24): 49.0 meters
6MWD change from baseline, median ([1]; Cohort 3, Month 36): 59.0 meters
6MWD change from baseline, median ([1]; Cohort 3, Month 48): 40.5 meters
patients whose 6MWD improved numerically from baseline (n/N) ([1]; ERT-experienced, 12 months): 13/16
patients whose 6MWD improved numerically from baseline (n/N) ([1]; ERT-experienced, 24 months): 9/13
patients whose 6MWD improved numerically from baseline (n/N) ([1]; ERT-experienced, 36 months): 6/12
patients whose 6MWD improved numerically from baseline (n/N) ([1]; ERT-experienced, 48 months): 6/9
patients with improvement from baseline in mean % predicted 6MWD ([1]; ERT-experienced, Month 48): 88.9%
patients whose 6MWD improved numerically from baseline (n/N) ([1]; ERT-naïve, 12 months): 6/6
patients whose 6MWD improved numerically from baseline (n/N) ([1]; ERT-naïve, 24 months): 6/6
patients whose 6MWD improved numerically from baseline (n/N) ([1]; ERT-naïve, 36 months): 4/5
patients whose 6MWD improved numerically from baseline (n/N) ([1]; ERT-naïve, 48 months): 4/4
patients with improvement from baseline in mean % predicted 6MWD ([1]; ERT-naïve, Month 48): 100%
PGIC: Declined, % [2, 15]: (0) %
PGIC: Improved, % [2, 15]: (57.1) %
PGIC: No change, % [2, 15]: (42.9) %
SGIC; Overall physical wellbeing: Declined, % [2, 15]: (0) %
SGIC; Overall physical wellbeing: Improved, % [2, 15]: (85.7) %
SGIC; Overall physical wellbeing: No change, % [2, 15]: (14.3) %
PGIC: Declined, % [2, 16]: (0) %
PGIC: Improved, % [2, 16]: (60.0) %
PGIC: No change, % [2, 16]: (40.0) %
SGIC; Overall physical wellbeing: Declined, % [2, 16]: (0) %
SGIC; Overall physical wellbeing: Improved, % [2, 16]: (60.0) %
SGIC; Overall physical wellbeing: No change, % [2, 16]: (40.0) %
PGIC: Declined, % [2, 17]: (0) %
PGIC: Improved, % [2, 17]: (100.0) %
PGIC: No change, % [2, 17]: (0) %
SGIC; Overall physical wellbeing: Declined, % [2, 17]: (0) %
SGIC; Overall physical wellbeing: Improved, % [2, 17]: (83.3) %
SGIC; Overall physical wellbeing: No change, % [2, 17]: (16.7) %
PGIC: Declined, % [2, 18]: (0) %
PGIC: Improved, % [2, 18]: (33.3) %
PGIC: No change, % [2, 18]: (66.7) %
SGIC; Overall physical wellbeing: Declined, % [2, 18]: (16.7) %
SGIC; Overall physical wellbeing: Improved, % [2, 18]: (66.7) %
SGIC; Overall physical wellbeing: No change, % [2, 18]: (16.7) %
